Test results as given in patent US20250115569A1, “SULFONAMIDE COMPOUNDS FOR THE TREATMENT OF NEUROLOGICAL CONDITIONS” (LARIO THERAPEUTICS LIMITED, priority 2021, published 2025).

Key:
[1] = test system: Human Cav2.3 channel; assay: Human Cav2.3 channel calcium-influx assay; format: cell-based; settings: Fluo8 fluorescence, HEK-293 T-Rex/Kir2.1/Cav2.3e cells, without pluronic acid
Outline: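 HEK-293 T-Rex/Kir2.1 cells with doxycycline (0.2 μg/mL)-inducible Cav2.3e plus Cavβ4-α2δ1, loaded with Fluo8 NW in 0 mM K+ Tyrode's. Compounds (8 points, top 30 μM, half-log, 0.3% final DMSO, n=4) preincubated 3 min at RT, then depolarized with 20 mM KCl/2 mM CaCl2 (final); fluorescence read 130 s.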

[2] = biological target: Cav2.3 (Homo sapiens, UniProt Q15878); assay: Whole-cell patch clamp assay (QPatch) in HEK-293 T-Rex/Kir2.1/Cav2.3e-β4-α2δ1 cells; format: cell-based; settings: QPatch 16X, room temperature, mean ± S.E, read-out: Cav2.3 (pIC50) (converted)
Protocol: HEK-293 T-Rex/Kir2.1/Cav2.3e-β4-α2δ1 cells were seeded 96 hours before experiment and doxycycline at 0.2 μg/mL was added 24 hours before experiment. Just before the experiments cells were washed twice with D-PBS w/o Ca^2+/Mg^2+ and gently detached from the flask with Detachin. Cells were then re-suspended in the suspension solution (25 mL EX-CELL ACF CHO medium; 0.25 mL of 100× Penicillin/Streptomycin) and placed on the Automated Patch-clamp platform (QPatch 16X).
Standard whole-cell voltage clamp experiments were performed at room temperature using the single hole technology and the following intracellular and extracellular solutions (ICS and ECS, respectively) were used. ICS (mM): CsF 60, CsCl 50, NaCl 10, EGTA 20, BAPTA 5, HEPES 10, NaGTP 0.3, MgATP 5 (pH 7.2; ECS (mM): NMDG-Cl 120, BaCl2 20, HEPES 10, EGTA 7 (pH 7.4). After establishment of the seal and the passage in the whole-cell configuration, the Cav2.3 dependent current was evoked by challenging the cells with the following voltage protocol: the plasma membrane was held at −80 mV then a 50 ms-long depolarizing pulse at 0 mV, followed by a 50 ms-long hyperpolarizing pulse at −100 mV were applied and finally the plasma membrane was held back to −80 mV. This voltage protocol was applied every 10 seconds. Cav2.3 dependent current was first measured in control condition (vehicle, 0.1% DMSO), in the presence of increasing concentration of the compound under investigation and finally SNX 482 was added to fully block any R-type Cav2.3 dependent current.
For data collection, the Sophion proprietary software was used while the analysis was performed off-line using Excel and GraphPad Prism. The inward current (Area Under Curve) measured during each depolarizing pulse was normalized to cell membrane capacitance (Cm) to obtain the average inward current density in each condition (control, compound under investigation and SNX 482). Then, the inhibitory effect of the compound under investigation was evaluated as % of the remaining inward current, normalized to the internal control. […] All data were expressed as mean±S.E

[3] = test system: MES model of epilepsy; assay: Maximal electroshock stimulation model (MES) in mouse; format: in vivo; settings: 1.5 mg/kg, oral administration
Protocol: Compounds of the invention were tested in an in vivo model of epilepsy, the MES model in mouse, according to the method described in Kehne et al, Neurochemistry Research 42:1894-1903 (2017) 1 https://doi.org/10.1007/s11064-017-2275-z.

[4] = biological target: R-type calcium current in substantia nigra dopamine neurons (Mus musculus (Mouse), UniProt Q61290); assay: Ex vivo whole cell patch clamp in substantia nigra dopamine neurons, mouse brain slice; format: cell-based; settings: concentrations of 10 μM
Protocol: Compounds of the invention were tested on R-type calcium current with whole cell patch clamp electrophysiology in substantia nigra dopamine neurons in an ex vivo brain slice preparation according to the methods described in Siller et al., Elife, 11:e67464 (2022) https://doi.org/i0.7554/eLife.67464.

Cav2.3, sequence (Q15878 whole entry, looked up): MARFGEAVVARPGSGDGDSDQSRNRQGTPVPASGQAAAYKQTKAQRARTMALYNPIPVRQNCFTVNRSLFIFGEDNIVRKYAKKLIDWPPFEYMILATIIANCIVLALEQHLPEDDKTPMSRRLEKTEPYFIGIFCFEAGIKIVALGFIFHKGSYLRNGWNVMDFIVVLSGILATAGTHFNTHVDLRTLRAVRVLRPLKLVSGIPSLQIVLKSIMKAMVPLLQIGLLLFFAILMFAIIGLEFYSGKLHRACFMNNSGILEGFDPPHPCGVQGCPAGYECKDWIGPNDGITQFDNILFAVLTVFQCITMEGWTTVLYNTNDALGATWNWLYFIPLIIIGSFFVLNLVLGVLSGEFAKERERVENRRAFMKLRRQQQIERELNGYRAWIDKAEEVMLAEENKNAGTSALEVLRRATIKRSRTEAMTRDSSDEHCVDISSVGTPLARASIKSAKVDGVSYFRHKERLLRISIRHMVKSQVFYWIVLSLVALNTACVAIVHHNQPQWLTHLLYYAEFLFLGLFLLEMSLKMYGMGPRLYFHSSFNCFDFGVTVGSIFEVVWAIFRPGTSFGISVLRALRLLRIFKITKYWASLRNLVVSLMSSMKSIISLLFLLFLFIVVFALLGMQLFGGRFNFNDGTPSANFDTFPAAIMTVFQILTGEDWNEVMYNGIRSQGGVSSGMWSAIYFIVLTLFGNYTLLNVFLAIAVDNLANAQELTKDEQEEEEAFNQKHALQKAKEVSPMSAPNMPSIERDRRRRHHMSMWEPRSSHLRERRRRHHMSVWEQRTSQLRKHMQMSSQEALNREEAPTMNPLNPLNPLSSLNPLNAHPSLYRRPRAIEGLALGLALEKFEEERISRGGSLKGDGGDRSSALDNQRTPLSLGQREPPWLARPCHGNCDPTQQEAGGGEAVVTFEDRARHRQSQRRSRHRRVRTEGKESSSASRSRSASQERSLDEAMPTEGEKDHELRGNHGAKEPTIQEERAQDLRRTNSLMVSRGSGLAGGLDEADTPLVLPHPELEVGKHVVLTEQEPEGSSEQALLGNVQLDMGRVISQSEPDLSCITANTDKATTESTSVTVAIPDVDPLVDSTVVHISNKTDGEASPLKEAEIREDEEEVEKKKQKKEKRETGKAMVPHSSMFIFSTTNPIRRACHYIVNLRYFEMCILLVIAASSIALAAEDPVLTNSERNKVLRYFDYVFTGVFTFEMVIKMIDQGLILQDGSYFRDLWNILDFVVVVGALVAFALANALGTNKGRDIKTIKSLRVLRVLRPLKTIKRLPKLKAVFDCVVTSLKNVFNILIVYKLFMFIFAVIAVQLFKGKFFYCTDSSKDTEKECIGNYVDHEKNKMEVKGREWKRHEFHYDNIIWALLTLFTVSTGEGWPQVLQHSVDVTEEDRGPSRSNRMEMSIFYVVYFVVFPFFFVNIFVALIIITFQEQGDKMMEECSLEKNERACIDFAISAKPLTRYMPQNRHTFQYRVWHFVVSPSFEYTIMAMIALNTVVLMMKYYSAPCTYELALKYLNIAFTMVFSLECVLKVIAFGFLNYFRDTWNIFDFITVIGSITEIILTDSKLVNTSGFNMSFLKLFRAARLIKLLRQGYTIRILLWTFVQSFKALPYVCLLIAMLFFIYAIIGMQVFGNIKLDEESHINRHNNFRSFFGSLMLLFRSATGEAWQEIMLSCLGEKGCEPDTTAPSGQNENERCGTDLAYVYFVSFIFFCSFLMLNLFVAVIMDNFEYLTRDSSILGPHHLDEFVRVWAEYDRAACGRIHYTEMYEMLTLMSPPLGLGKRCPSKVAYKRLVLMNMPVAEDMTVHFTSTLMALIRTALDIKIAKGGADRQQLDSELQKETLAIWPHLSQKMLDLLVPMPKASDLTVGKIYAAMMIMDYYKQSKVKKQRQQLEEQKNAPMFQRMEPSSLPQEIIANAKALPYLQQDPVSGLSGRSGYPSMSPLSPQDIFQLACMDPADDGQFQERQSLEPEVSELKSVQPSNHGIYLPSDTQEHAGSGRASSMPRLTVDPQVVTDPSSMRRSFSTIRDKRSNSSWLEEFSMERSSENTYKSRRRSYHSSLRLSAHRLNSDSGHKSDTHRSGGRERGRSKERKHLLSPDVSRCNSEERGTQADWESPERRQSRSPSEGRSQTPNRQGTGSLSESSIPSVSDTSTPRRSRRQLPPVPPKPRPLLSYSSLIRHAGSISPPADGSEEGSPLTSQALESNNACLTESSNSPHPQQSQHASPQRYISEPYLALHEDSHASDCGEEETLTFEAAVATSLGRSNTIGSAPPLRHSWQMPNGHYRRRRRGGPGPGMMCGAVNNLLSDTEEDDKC
R-type calcium current in substantia nigra dopamine neurons, sequence (Q61290 whole entry): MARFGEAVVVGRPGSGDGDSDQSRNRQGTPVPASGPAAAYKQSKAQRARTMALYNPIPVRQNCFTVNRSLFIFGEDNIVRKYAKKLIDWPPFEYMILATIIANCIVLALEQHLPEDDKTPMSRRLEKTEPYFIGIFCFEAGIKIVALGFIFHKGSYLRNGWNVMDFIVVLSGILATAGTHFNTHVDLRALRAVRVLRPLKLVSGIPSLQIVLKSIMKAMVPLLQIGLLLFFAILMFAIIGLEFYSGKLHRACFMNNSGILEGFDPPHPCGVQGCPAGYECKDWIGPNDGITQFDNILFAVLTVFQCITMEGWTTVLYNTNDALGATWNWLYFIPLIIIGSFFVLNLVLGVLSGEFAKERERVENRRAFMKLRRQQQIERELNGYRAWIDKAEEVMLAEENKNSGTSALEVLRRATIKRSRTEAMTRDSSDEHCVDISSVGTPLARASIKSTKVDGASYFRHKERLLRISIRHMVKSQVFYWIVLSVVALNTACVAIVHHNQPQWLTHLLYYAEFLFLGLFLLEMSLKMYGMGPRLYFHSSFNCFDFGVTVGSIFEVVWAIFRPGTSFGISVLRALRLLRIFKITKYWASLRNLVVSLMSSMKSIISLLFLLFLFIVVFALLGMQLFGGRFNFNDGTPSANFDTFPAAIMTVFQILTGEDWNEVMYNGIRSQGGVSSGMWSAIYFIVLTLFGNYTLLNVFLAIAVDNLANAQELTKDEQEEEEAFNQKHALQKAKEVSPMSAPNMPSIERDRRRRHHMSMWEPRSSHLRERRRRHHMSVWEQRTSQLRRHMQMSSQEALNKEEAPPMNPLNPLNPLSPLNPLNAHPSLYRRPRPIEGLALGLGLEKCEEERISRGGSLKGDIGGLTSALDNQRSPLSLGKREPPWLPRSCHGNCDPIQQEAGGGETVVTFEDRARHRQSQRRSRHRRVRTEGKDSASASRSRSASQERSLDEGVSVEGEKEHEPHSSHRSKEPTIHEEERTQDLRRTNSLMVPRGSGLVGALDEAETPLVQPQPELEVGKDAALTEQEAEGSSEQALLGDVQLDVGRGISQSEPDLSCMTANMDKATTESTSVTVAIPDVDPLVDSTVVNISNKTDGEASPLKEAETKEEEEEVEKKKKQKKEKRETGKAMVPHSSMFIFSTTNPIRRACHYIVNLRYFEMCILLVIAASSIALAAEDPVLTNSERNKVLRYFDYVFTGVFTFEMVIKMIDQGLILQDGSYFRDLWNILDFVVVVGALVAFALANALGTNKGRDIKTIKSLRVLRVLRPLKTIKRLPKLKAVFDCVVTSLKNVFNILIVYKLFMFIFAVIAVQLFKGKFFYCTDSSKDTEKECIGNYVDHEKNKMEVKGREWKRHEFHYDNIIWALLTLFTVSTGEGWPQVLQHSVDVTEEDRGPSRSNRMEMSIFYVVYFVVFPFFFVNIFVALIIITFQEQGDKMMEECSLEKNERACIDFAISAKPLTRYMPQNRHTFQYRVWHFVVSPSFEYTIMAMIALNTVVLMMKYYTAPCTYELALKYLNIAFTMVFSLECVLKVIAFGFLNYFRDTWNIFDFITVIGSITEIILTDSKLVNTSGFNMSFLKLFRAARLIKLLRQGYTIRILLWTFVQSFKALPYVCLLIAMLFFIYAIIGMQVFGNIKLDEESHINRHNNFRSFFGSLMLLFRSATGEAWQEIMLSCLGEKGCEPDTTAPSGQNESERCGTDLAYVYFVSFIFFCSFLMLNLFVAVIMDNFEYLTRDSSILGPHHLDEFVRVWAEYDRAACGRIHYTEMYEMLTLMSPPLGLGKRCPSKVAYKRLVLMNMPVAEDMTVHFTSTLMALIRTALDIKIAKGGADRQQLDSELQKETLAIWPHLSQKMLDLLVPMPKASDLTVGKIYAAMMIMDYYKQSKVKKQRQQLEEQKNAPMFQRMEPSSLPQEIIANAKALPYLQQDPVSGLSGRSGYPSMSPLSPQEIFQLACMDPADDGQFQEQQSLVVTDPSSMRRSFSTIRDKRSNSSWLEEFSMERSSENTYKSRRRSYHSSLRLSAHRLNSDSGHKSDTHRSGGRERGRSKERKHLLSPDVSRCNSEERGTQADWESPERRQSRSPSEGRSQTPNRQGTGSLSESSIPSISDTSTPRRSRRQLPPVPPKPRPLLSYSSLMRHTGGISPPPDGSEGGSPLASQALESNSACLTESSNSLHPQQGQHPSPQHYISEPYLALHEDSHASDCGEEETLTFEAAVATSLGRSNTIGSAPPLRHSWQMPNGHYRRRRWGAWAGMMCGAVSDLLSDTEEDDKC

Cav2.3 (pIC50) [1]: 7.87 | IC50 [2]: 46.8 nM | activity blocking R-type calcium current [4]: active
Compound: CCN([C@H](c1ccc(F)cc1)C(F)(F)F)S(=O)(=O)c1cncc(C#N)c1 [Example 35, (R)-5-cyano-N-ethyl-N-(2,2,2-trifluoro-1-(4-fluorophenyl)ethyl)pyridine-3-sulfonamide]
activity in the MES model [3]: active
